{"source": "PubChem BioAssay AID588529", "about": "(Broad Institute, 2011)"}
{"system": "Candida albicans CaCi-2 growth, Alamar Blue fluorescence, 48 h", "experiment": "antifungal activity of compounds alone, resistant C. albicans – CaCi-2 isolate, Alamar Blue, cherry-pick, dose response (AID 588529)", "units": {"AC50": "µM"}}
{"smiles": "COc1ccc(C)cc1N=Nc1ccc(O)c2ncccc12", "AC50": 1.71}
{"smiles": "O=[N+]([O-])c1ccc(O)c(/C=N/Nc2ccc(Cl)nn2)c1", "AC50": 5.11}
{"smiles": "C(C#CCCCCCCCCC[n+]1ccccc1)#CCCCCCCCCC[n+]1ccccc1", "AC50": 16.2}
{"smiles": "O=C(N/N=C/c1cc2c3c(c1O)CCCN3CCC2)c1ccccc1O", "AC50": 1.75}
{"smiles": "Cc1ccc(C(=O)c2coc3c2C(=O)C(=O)c2ccccc2-3)cc1", "AC50": 9.38}
{"smiles": "O=C(N/N=C/c1c(O)ccc2ccccc12)c1cccc(C(F)(F)F)c1", "AC50": 1.45}
{"smiles": "O=Nc1c(-c2cccc([N+](=O)[O-])c2)nc2ncccn12", "AC50": 5.11}
{"smiles": "Oc1c(CN2CCN(c3ccc(F)cc3)CC2)cc(Cl)c2cccnc12", "AC50": 3.73}
{"smiles": "COc1cccc(N=Nc2ccc3cccnc3c2O)c1", "AC50": 1.52}
{"smiles": "CCOc1ccc(N=Nc2ccc(O)c3ncccc23)cc1", "AC50": 1.4}
{"smiles": "CN1CCN(C(c2ccc(C(F)(F)F)cc2)c2cc(Cl)c3cccnc3c2O)CC1", "note": "(centres undefined)", "AC50": 2.71}
{"smiles": "CCCCC(=O)NC(c1ccco1)c1cc(Cl)c2cccnc2c1O", "note": "(centres undefined)", "AC50": 6.22}
{"smiles": "Oc1ccc(N=Nc2ccc3c(c2)OCCO3)c2cccnc12", "AC50": 3.55}
{"smiles": "Oc1c(CN2CCN(c3ccccc3)CC2)cc(Br)c2cccnc12", "AC50": 2.38}
{"smiles": "C/C(=N\\NC(=O)c1cc2ccccc2cc1O)c1ccccn1", "AC50": 5}
{"smiles": "COc1cccc(/C=N/Nc2ncnc3scc(-c4ccccc4)c23)c1O", "AC50": 5.52}
{"smiles": "COc1cccc(N=Nc2ccc(O)c3ncccc23)c1", "AC50": 0.39}
{"smiles": "C=CCNC(=S)N/N=C(\\C)c1ccccn1", "AC50": 13.8}
{"smiles": "CCCCC(=O)NC(c1ccc(N(CC)CC)cc1)c1ccc2cccnc2c1O", "note": "(centres undefined)", "AC50": 3.74}
{"smiles": "CCCCC(=O)NC(c1ccc(Cl)cc1)c1ccc2cccnc2c1O", "note": "(centres undefined)", "AC50": 5.11}
{"smiles": "CCCCCCC[n+]1ccc(-c2cc[n+](CCCCCCC)cc2)cc1", "AC50": 3.76}
{"smiles": "Oc1c(C(Nc2nccs2)c2ccc(C(F)(F)F)cc2)ccc2cccnc12", "note": "(centres undefined)", "AC50": 3.73}
{"smiles": "O=C(Oc1c(Cl)cc(Cl)c2cccnc12)c1cccs1", "AC50": 1.49}
{"smiles": "CCOC(=O)N1C(=O)C2(CCCCC2)N(c2ccc(C)cc2)C1=S", "AC50": 0.102}
{"smiles": "Cc1cc(NC(c2ccc(Cl)cc2)c2ccc3cccnc3c2O)no1", "note": "(centres undefined)", "AC50": 4.71}
{"smiles": "CCN(CC)S(=O)(=O)c1cc(OC)ccc1N=Nc1ccc(O)c2ncccc12", "AC50": 10.6}
{"smiles": "CN1CCN(C(c2ccc(C(F)(F)F)cc2)c2ccc3cccnc3c2O)CC1", "note": "(centres undefined)", "AC50": 5.05}
{"smiles": "O=c1ccc(N=Nc2ccccc2)ccc1O", "AC50": 4.76}
{"smiles": "Oc1ccc(N=Nc2ccc3c(c2)OCCO3)c2ncccc12", "AC50": 2.59}
{"smiles": "O=[N+]([O-])c1cc(CN2CCN(c3ccccc3)CC2)c(O)c2ncccc12", "AC50": 5.39}
{"smiles": "O=C(Oc1c(Cl)cc(Cl)c2cccnc12)c1ccco1", "AC50": 0.812}
{"smiles": "Oc1c(C(c2ccc(Cl)cc2)N2CCCC2)cc(Cl)c2cccnc12", "note": "(centres undefined)", "AC50": 1.51}
{"smiles": "O=Cc1ccc(O)c2ncccc12", "AC50": 3.85}
{"smiles": "Oc1c(C(Nc2nc3ccccc3s2)c2ccco2)ccc2cccnc12", "note": "(centres undefined)", "AC50": 3.26}
